According to PubChem BioAssay AID2005 (Sanford-Burnham Center for Chemical Genomics, 2009):
The source made the active and inactive calls.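 Rule for the calls: active = plate Z score at or below -3, or inhibition of at least 30% at 20 µM; inactive = the rest.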

Test: compounds lowering EGFP fluorescence in F442A cells, dose response, counter-screen for p/CIP destabilizer project (AID 2005);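 note: cells express EGFP alone from a CMV promoter as a counter screen for p/CIP-EGFP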
Conditions: F442A EGFP cells, EGFP fluorescence, 16 h, stronger effect = higher value

## CC1=C(C(=O)OCc2ccccc2)C(c2ccc(C(F)(F)F)cc2)NC(=O)N1CCCCCC(=O)O (stereo unspecified)
EGFP decrease, at 10 µM
  inhibition: -4.3%
At 20 µM
  inhibition: -6% (inactive)

## COc1ccc2[nH]cc(CC(=O)O)c2c1
EGFP decrease, at 10 µM
  inhibition: 39.2%
At 20 µM
  inhibition: 23.6% (inactive)

## Cc1ccc(S(=O)(=O)Nc2cccc(-c3cn4ccsc4n3)c2)cc1
EGFP decrease, at 10 µM
  inhibition: 31%
At 20 µM
  inhibition: 10.2% (inactive)

## Cc1ccc(NC(=S)Nc2cccc3cnccc23)cc1
EGFP decrease, at 10 µM
  inhibition: 2.1%
At 20 µM
  inhibition: 26.8% (inactive)

## COC(=O)c1sc(NC(=O)CSc2nnnn2-c2cccc(OC)c2)nc1C
EGFP decrease, at 10 µM
  inhibition: 34.2%
At 20 µM
  inhibition: 13.2% (inactive)

## Cc1ccsc1C(=O)OCC(=O)N1CCc2ccccc2C1
EGFP decrease, at 10 µM
  inhibition: 5%
At 20 µM
  inhibition: 13.3% (inactive)

## COc1ccc([N+](=O)[O-])cc1NC(=O)c1cccs1
EGFP decrease, at 10 µM
  inhibition: 18.4%
At 20 µM
  inhibition: 8.7% (inactive)

## O=C(COC(=O)c1cnccn1)c1ccc(OC(=O)c2ccccc2)cc1
EGFP decrease, at 10 µM
  inhibition: 21%
At 20 µM
  inhibition: 17% (inactive)

## CCCc1nnc(NC(=O)C2CCN(C(=O)C3CC(=O)N(c4ccc(C)cc4)C3)CC2)s1 (stereo unspecified)
EGFP decrease, at 10 µM
  inhibition: 13.9%
At 20 µM
  inhibition: 14.4% (inactive)

## CCOc1ccccc1OCc1nn2c(-c3ccc(C)cc3)nnc2s1
EGFP decrease, at 10 µM
  inhibition: -2%
At 20 µM
  inhibition: -2.8% (inactive)

## O=C(NNS(=O)(=O)c1ccc(F)cc1)C1CCN(S(=O)(=O)c2ccccc2)CC1
EGFP decrease, at 10 µM
  inhibition: -22.3%
At 20 µM
  inhibition: -6.1% (inactive)

## Cc1cc(/N=C/N(C)C)on1
EGFP decrease, at 10 µM
  inhibition: 20.8%
At 20 µM
  inhibition: -23.7% (inactive)

## COC(=O)c1ccc(NC(=O)CCCCCn2nnc3ccccc3c2=O)cc1
EGFP decrease, at 10 µM
  inhibition: 5.4%
At 20 µM
  inhibition: -4% (inactive)

## COC(=O)CSc1[nH]c(=O)cc(C)c1C#N
EGFP decrease, at 10 µM
  inhibition: 26.6%
At 20 µM
  inhibition: 49.5%

## COc1ccc(OC)c(Nc2cc(C)c3ccccc3n2)c1
EGFP decrease, at 10 µM
  inhibition: 13.3%
At 20 µM
  inhibition: 5.4% (inactive)

## Cc1ccc(CN(Cc2ccccc2)C(=S)NCC(=O)NCc2cccnc2)o1
EGFP decrease, at 10 µM
  inhibition: 5.8%
At 20 µM
  inhibition: 6.9% (inactive)

## COc1ccc(CNC(=O)C(c2ccc(C)o2)N(Cc2cccs2)C(=O)Cc2cccs2)cc1 (stereo unspecified)
EGFP decrease, at 10 µM
  inhibition: 33.3%
At 20 µM
  inhibition: 25.5% (inactive)

## O=C(CN(CCc1ccccc1)C(=O)CNS(=O)(=O)c1ccccc1)NCC1CCCO1 (stereo unspecified)
EGFP decrease, at 10 µM
  inhibition: 25.6%
At 20 µM
  inhibition: 23.8% (inactive)

## Cc1cc(C)nc(Sc2ccc3nnc(C(F)(F)C(F)(F)C(F)(F)F)n3n2)n1
EGFP decrease, at 10 µM
  inhibition: 40.7%
At 20 µM
  inhibition: 15.9% (inactive)

## Cc1cc(C(=O)Nc2cccc(C)c2C)n(-c2ccccc2)n1
EGFP decrease, at 10 µM
  inhibition: -4.4%
At 20 µM
  inhibition: 5.5% (inactive)

## CC(=O)N1c2c(cc(Br)cc2S(=O)(=O)NCc2ccccc2)CC1C (stereo unspecified)
EGFP decrease, at 10 µM
  inhibition: 26.4%
At 20 µM
  inhibition: 20.8% (inactive)

## CCCCCCn1c(=O)c(C(=O)Nc2cccc(C)n2)c(O)c2ccccc21
EGFP decrease, at 10 µM
  inhibition: 26.7%
At 20 µM
  inhibition: 20.6% (inactive)

## CC(=O)Nc1cn(C(C)=O)c(C)n1
EGFP decrease, at 10 µM
  inhibition: 5.9%
At 20 µM
  inhibition: 33.7%

## CCN(Cc1nc2ccccc2c(=O)[nH]1)Cc1nc2ccsc2c(=O)[nH]1
EGFP decrease, at 10 µM
  inhibition: 26.2%
At 20 µM
  inhibition: 22.6% (inactive)

## Cc1ccc(-c2nc(CS(=O)CC(=O)NC3CCC(C)CC3)c(C)o2)cc1 (stereo unspecified)
EGFP decrease, at 10 µM
  inhibition: 27.4%
At 20 µM
  inhibition: -4.5% (inactive)

## CCOC(=O)c1ccc(COC(=O)c2nonc2N)cc1
EGFP decrease, at 10 µM
  inhibition: 4.5%
At 20 µM
  inhibition: 21.1% (inactive)

## Cc1cccc2cc(CN(Cc3ccc(F)cc3)Cc3nnnn3C3CCCC3)c(=O)[nH]c12
EGFP decrease, at 10 µM
  inhibition: 13.4%
At 20 µM
  inhibition: 6.5% (inactive)

## CN1CCn2c1nc(N1CCCCC1)nc2=O
EGFP decrease, at 10 µM
  inhibition: 14.7%
At 20 µM
  inhibition: 16.5% (inactive)
